One experiment concerns the target rnADAMTS-5 (1-564-6H) (Rattus norvegicus, UniProt Q6TY19). To be noted: read-out: Rat ADAMTS-5 potency IC50.
The next experiment deals with human TACE (Homo sapiens (Human), UniProt P78536). To be noted: read-out: TACE potency IC50.
In the next experiment the target is human ADAMTS-5 (Homo sapiens (Human), UniProt Q9UNA0). The note with it: read-out: hADAMTS-5 potency IC50.
For a further experiment, the target named is human MMP13 (Homo sapiens (Human), UniProt P45452). To be noted: read-out: hMMP-13 potency IC50.

Each structure is given as a SMILES string. Where only a bound is given, the exact number is not on record here.

Chain of human TACE (P78536 whole entry, looked up, change not shown): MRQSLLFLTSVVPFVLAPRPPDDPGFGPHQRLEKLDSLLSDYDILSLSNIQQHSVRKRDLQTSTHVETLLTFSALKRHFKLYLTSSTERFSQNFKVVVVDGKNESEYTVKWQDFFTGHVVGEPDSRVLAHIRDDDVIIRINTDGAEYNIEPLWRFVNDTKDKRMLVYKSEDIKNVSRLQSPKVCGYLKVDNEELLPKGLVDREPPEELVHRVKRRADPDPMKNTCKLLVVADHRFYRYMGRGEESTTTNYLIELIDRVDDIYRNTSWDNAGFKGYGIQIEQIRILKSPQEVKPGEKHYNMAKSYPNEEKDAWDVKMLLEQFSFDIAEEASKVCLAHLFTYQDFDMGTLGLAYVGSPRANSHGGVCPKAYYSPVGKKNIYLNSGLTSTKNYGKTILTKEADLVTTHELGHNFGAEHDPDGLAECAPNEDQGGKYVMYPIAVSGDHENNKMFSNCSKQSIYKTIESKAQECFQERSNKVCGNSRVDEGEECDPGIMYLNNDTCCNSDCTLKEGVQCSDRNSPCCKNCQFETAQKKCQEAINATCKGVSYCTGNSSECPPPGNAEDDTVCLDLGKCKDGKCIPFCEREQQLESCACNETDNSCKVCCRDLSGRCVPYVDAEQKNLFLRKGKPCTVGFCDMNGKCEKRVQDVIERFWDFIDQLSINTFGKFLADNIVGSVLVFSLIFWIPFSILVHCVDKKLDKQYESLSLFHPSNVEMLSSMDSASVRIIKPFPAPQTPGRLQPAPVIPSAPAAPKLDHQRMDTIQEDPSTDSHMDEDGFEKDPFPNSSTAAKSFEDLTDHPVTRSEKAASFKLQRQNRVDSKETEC
Chain of human ADAMTS-5 (Q9UNA0 262-930): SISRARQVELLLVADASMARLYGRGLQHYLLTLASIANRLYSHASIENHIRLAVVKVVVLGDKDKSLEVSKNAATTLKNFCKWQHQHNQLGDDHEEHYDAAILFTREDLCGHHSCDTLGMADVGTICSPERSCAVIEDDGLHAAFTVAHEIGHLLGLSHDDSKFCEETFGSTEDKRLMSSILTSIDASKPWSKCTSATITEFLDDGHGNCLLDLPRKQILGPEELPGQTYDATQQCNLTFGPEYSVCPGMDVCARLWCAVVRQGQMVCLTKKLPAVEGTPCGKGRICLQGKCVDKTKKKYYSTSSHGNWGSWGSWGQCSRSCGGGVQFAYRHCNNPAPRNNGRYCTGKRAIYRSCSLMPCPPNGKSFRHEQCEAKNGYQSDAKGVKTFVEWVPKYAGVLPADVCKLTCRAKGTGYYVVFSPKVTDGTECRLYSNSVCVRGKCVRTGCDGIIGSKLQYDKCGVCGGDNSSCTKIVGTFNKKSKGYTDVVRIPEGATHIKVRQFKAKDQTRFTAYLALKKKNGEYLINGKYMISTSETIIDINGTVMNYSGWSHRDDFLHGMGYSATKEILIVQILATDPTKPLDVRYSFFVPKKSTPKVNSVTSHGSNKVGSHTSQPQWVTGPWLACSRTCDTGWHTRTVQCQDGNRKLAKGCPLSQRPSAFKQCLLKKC
Procedure for human MMP13: Human MMP13 is preactivated by incubated the enzyme in the same buffer complemented with 1 mM freshly prepared p-Aminophenylmercuric acetate (AMPA) for 1 hour at 37° C.

Broadly, the IC50 is the concentration at which inhibition is half-maximal. For the molecule `Cc1cccc(N2CCN(C(=O)CCC3(C4CC4)NC(=O)NC3=O)CC2)c1C` (stereo not shown) [compound 57, 5-cyclopropyl-5-[3-[4-(2,3-dimethylphenyl)piperazin-1-yl]-3-oxo-propyl]imidazolidine-2,4-dione], the IC50 at rnADAMTS-5 (1-564-6H) is 117 nM; on human TACE, more than 12000 nM; at human ADAMTS-5, 93 nM.
Take `Cc1cccc(C)c1N1CCN(C(=O)CCC2(c3ccccc3)NC(=O)NC2=O)CC1` (stereo not shown) [compound 22, 5-[3-[4-(2,6-dimethylphenyl)piperazin-1-yl]-3-oxo-propyl]-5-phenyl-imidazolidine-2,4-dione]: the IC50 on rnADAMTS-5 (1-564-6H) is 3900 nM; on human ADAMTS-5 it was more than 3790 nM.
With `O=C1NC(=O)C(CCC(=O)N2CCN(c3cccc(Cl)c3)CC2)(c2cccnc2)N1` (stereo not shown) [compound 56, 5-[3-[4-(3-chlorophenyl)piperazin-1-yl]-3-oxo-propyl]-5-(3-pyridyl)imidazolidine-2,4-dione], the IC50 at rnADAMTS-5 (1-564-6H) was determined as 72 nM; on human TACE it was 3190 nM; at human ADAMTS-5 it was 38 nM.
Turning to `Cc1ccc(Cl)cc1N1CCN(C(=O)CCC2(C3CCC3)NC(=O)NC2=O)CC1` (stereo not shown) [compound 71, 5-[3-[4-(5-chloro-2-methyl-phenyl)piperazin-1-yl]-3-oxo-propyl]-5-cyclobutyl-imidazolidine-2,4-dione], the IC50 on rnADAMTS-5 (1-564-6H) is 198 nM; at human ADAMTS-5, 200 nM.
`CC1(CCC(=O)N2CCN(c3ccc(Cl)c(F)c3)CC2)NC(=O)NC1=O` (stereo not shown) [compound 49, 5-[3-[4-(4-chloro-3-fluoro-phenyl)piperazin-1-yl]-3-oxo-propyl]-5-methyl-imidazolidine-2,4-dione]: the IC50 is 141 nM on rnADAMTS-5 (1-564-6H), more than 20000 nM on human TACE and 127 nM at human ADAMTS-5.
Consider `CC1(CCC(=O)N2CCN(c3cncc(F)c3)CC2)NC(=O)NC1=O` (stereo not shown) [compound 84, 5-[3-[4-(5-fluoro-3-pyridyl)piperazin-1-yl]-3-oxo-propyl]-5-methyl-imidazolidine-2,4-dione], for which the IC50 at rnADAMTS-5 (1-564-6H) was 637 nM; on human ADAMTS-5, 815 nM.
As to `O=C1NC(=O)C(CCC(=O)N2CCN(c3ccc4ccccc4n3)CC2)(c2ccccc2)N1` (stereo not shown) [compound 15, 5-[3-oxo-3-[4-(2-quinolyl)piperazin-1-yl]propyl]-5-phenyl-imidazolidine-2,4-dione], the concentration for half-maximal inhibition (IC50) on rnADAMTS-5 (1-564-6H) and on human ADAMTS-5 was more than 4000 nM throughout.
Turning to `COc1ccc(Cl)cc1C1(CCC(=O)N2CCN(c3cccc(Cl)c3)CC2)NC(=O)NC1=O` (stereo not shown) [compound 132, 5-(5-chloro-2-methoxy-phenyl)-5-[3-[4-(3-chlorophenyl)piperazin-1-yl]-3-oxo-propyl]imidazolidine-2,4-dione], the values for the IC50 at human TACE, on human MMP13 and at human ADAMTS-5 were 348 nM, 3290 nM and 37 nM, respectively.
On the same counts, the results for `C[C@@H]1CN(C(=O)CCC2(c3cccnc3)NC(=O)NC2=O)CCN1c1ccccc1` (stereo partly drawn) [compound 134, 5-[3-[(3R)-3-methyl-4-phenyl-piperazin-1-yl]-3-oxo-propyl]-5-(3-pyridyl)imidazolidine-2,4-dione] are more than 20000 nM, more than 20000 nM and 1870 nM.
With `Cc1cc(N2CCN(C(=O)CCC3(c4ccccc4)NC(=O)NC3=O)CC2)ccc1[N+](=O)[O-]` (stereo not shown) [compound 23, 5-[3-[4-(3-methyl-4-nitro-phenyl)piperazin-1-yl]-3-oxo-propyl]-5-phenyl-imidazolidine-2,4-dione], the IC50 is 158 nM on rnADAMTS-5 (1-564-6H) and 157 nM on human ADAMTS-5.
On to `Cc1ccc(C2(CCC(=O)N3CCN(c4cc(Cl)ccc4C)CC3)NC(=O)NC2=O)cc1` (stereo not shown) [compound 77, 5-[3-[4-(5-chloro-2-methyl-phenyl)piperazin-1-yl]-3-oxo-propyl]-5-(p-tolyl)imidazolidine-2,4-dione], for which the IC50 at rnADAMTS-5 (1-564-6H) came to 169 nM; at human ADAMTS-5, 107 nM.
For `O=C1NC(=O)C(CCC(=O)N2CCN(c3cccc(Cl)c3)CC2)(C2CCCCC2)N1` (stereo not shown) [compound 72, 5-[3-[4-(3-chlorophenyl)piperazin-1-yl]-3-oxo-propyl]-5-cyclohexyl-imidazolidine-2,4-dione], the concentration for half-maximal inhibition (IC50) on rnADAMTS-5 (1-564-6H) was 282 nM; on human ADAMTS-5, 264 nM.
Regarding `O=C1NC(=O)C(CCC(=O)N2CCN(c3ccc(Cl)cc3)CC2)(c2ccccc2)N1` (stereo not shown) [compound 5, 5-[3-[4-(4-chlorophenyl)piperazin-1-yl]-3-oxo-propyl]-5-phenyl-imidazolidine-2,4-dione], the figures for the half-inhibitory concentration (IC50) at rnADAMTS-5 (1-564-6H), at human TACE and at human ADAMTS-5 were 101 nM, more than 3330 nM and 78 nM, respectively.
Take `Cc1ccc(Cl)cc1N1CCN(C(=O)CCC2(C(C)(C)C)NC(=O)NC2=O)CC1` (stereo not shown) [compound 108, 5-tert-butyl-5-[3-[4-(5-chloro-2-methyl-phenyl)piperazin-1-yl]-3-oxo-propyl]imidazolidine-2,4-dione]: the results for the 50% inhibitory concentration (IC50) at rnADAMTS-5 (1-564-6H) and at human ADAMTS-5 were 410 nM and 320 nM, respectively.
As to `CC1CN(C(=O)CCC2(C3CC3)NC(=O)NC2=O)CCN1c1cc(Cl)cc(Cl)c1` (stereo not shown) [compound 130, 5-cyclopropyl-5-[3-[4-(3,5-dichlorophenyl)-3-methyl-piperazin-1-yl]-3-oxo-propyl]imidazolidine-2,4-dione], the IC50 is more than 4000 nM on human TACE, more than 20000 nM on human MMP13 and 126 nM on human ADAMTS-5.
On the same counts, the results for `Cc1ccc(F)cc1N1CCN(C(=O)CCC2(C3CC3)NC(=O)NC2=O)CC1C` (stereo not shown) [compound 129, 5-cyclopropyl-5-[3-[4-(5-fluoro-2-methyl-phenyl)-3-methyl-piperazin-1-yl]-3-oxo-propyl]imidazolidine-2,4-dione] are more than 4000 nM, more than 20000 nM and 150 nM.
On to `N#Cc1ccc(C2(CCC(=O)N3CCN(c4cccc(Cl)c4)CC3)NC(=O)NC2=O)cc1` (stereo not shown) [compound 125, 4-[4-[3-[4-(3-chlorophenyl)piperazin-1-yl]-3-oxo-propyl]-2,5-dioxo-imidazolidin-4-yl]benzonitrile], for which the figures for the half-inhibitory concentration (IC50) at human TACE, at human MMP13 and on human ADAMTS-5 were 1800 nM, 2120 nM and 53 nM, respectively.
With `Cc1ccccc1N1CCN(C(=O)CCC2(c3ccc(CN(C)C)cc3)NC(=O)NC2=O)CC1` (stereo not shown) [compound 82, 5-[4-(dimethylaminomethyl)phenyl]-5-[3-[4-(o-toly)piperazin-1-yl]-3-oxo-propyl]imidazolidine-2,4-dione], the values for the half-maximal inhibitory concentration (IC50) at rnADAMTS-5 (1-564-6H) and on human ADAMTS-5 were 2090 nM and 1740 nM, respectively.
Take `CC1CN(C(=O)CCC2(c3cccnc3)NC(=O)NC2=O)CCN1c1ccc(Cl)cc1` (stereo not shown) [compound 126, 5-[3-[4-(4-chlorophenyl)-3-methyl-piperazin-1-yl]-3-oxo-propyl]-5-(3-pyridyl)imidazolidine-2,4-dione]: the values for the IC50 on human TACE, at human MMP13 and at human ADAMTS-5 were more than 4000 nM, more than 4000 nM and 106 nM, respectively.
With `Cc1ccccc1N1CCN(C(=O)CCC2(c3ccc(OCCN(C)C)cc3)NC(=O)NC2=O)CC1` (stereo not shown) [compound 81, 5-[4-(2-dimethylaminoethyloxy)phenyl]-5-[3-[4-(o-toyl)piperazin-1-yl]-3-oxo-propyl]imidazolidine-2,4-dione], the values for the IC50 on rnADAMTS-5 (1-564-6H) and on human ADAMTS-5 were 827 nM and 681 nM, respectively.
Turning to `Cc1cccc(N2CCN(C(=O)CCC3(c4ccccn4)NC(=O)NC3=O)CC2)c1C` (stereo not shown) [compound 101, 5-[3-[4-(2,3-dimethylphenyl)piperazin-1-yl]-3-oxo-propyl]-5-(2-pyridyl)imidazolidine-2,4-dione], the half-inhibitory concentration (IC50) came to 165 nM at rnADAMTS-5 (1-564-6H) and 154 nM at human ADAMTS-5.
Consider `O=C1NC(=O)C(CCC(=O)N2CCN(c3ccccc3)CC2)(c2cccnc2)N1` (stereo not shown) [compound 68, 5-[3-oxo-3-(4-phenylpiperazin-1-yl)propyl]-5-(3-pyridyl)imidazolidine-2,4-dione], for which the half-inhibitory concentration (IC50) at rnADAMTS-5 (1-564-6H) was found to be 200 nM; on human ADAMTS-5, 169 nM.
For the molecule `Cc1cccc(N2CCN(C(=O)CCC3(c4cccnc4)NC(=O)NC3=O)CC2)c1C` (stereo not shown) [compound 69, 5-[3-[4-(2,3-dimethylphenyl)piperazin-1-yl]-3-oxo-propyl]-5-(3-pyridyl)imidazolidine-2,4-dione], the IC50 was 185 nM on rnADAMTS-5 (1-564-6H) and 178 nM at human ADAMTS-5.
As to `Cc1c(F)cccc1N1CCN(C(=O)CCC2(C)NC(=O)NC2=O)CC1` (stereo not shown) [compound 60, 5-[3-[4-(3-fluoro-2-methyl-phenyl)piperazin-1-yl]-3-oxo-propyl]-5-methyl-imidazolidine-2,4-dione], the concentration for half-maximal inhibition (IC50) at human TACE is more than 20000 nM; on human MMP13, more than 20000 nM; on human ADAMTS-5, 1160 nM.
As for `Cc1c(Cl)cc(Cl)cc1N1CCN(C(=O)CCC2(C)NC(=O)NC2=O)CC1` (stereo not shown) [compound 139, 5-[3-[4-(3,5-dichloro-2-methyl-phenyl)piperazin-1-yl]-3-oxo-propyl]-5-methyl-imidazolidine-2,4-dione], the IC50 on human TACE was 1320 nM; at human MMP13, more than 20000 nM; on human ADAMTS-5 it was 231 nM.
In the case of `C[C@@H]1CN(C(=O)CCC2(C3CC3)NC(=O)NC2=O)CCN1c1ccccc1` (stereo partly drawn) [compound 128, 5-cyclopropyl-5-[3-[(3R)-3-methyl-4-phenyl-piperazin-1-yl]-3-oxo-propyl]imidazolidine-2,4-dione], the results for the concentration for half-maximal inhibition (IC50) at human TACE, on human MMP13 and on human ADAMTS-5 were more than 20000 nM, more than 20000 nM and 1170 nM, respectively.
Regarding `COc1cccc(C2(CCC(=O)N3CCN(c4cccc(Cl)c4)CC3)NC(=O)NC2=O)c1` (stereo not shown) [compound 123, 5-[3-[4-(3-chlorophenyl)piperazin-1-yl]-3-oxo-propyl]-5-(3-methoxyphenyl)imidazolidine-2,4-dione], the 50% inhibitory concentration (IC50) came to 1640 nM at human TACE, 919 nM on human MMP13 and 95 nM at human ADAMTS-5.
As to `Cc1ccc(Cl)cc1N1CCN(C(=O)CCC2(C3CCCC3)NC(=O)NC2=O)CC1` (stereo not shown) [compound 110, 5-[3-[4-(5-chloro-2-methyl-phenyl)piperazin-1-yl]-3-oxo-propyl]-5-cyclopentyl-imidazolidine-2,4-dione], the figures for the half-inhibitory concentration (IC50) at rnADAMTS-5 (1-564-6H) and on human ADAMTS-5 were 299 nM and 297 nM, respectively.
